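48-hour exposure; five concentrations; linearly interpolated endpoints. GI50 marks 50% less growth.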 Calls of active or inactive are those of the source. Rule as the data show it: active = GI50 up to about 1.1 µM and inactive = higher.
What was measured:
Experiment in all cases: DTP human tumour cell line panel, 48 h
[1] = test system: SF-295
[2] = test system: HT-29
[3] = test system: U-251
[4] = test system: UACC-257
[5] = test system: TK-10
[6] = test system: HCT-116
[7] = test system: MDA-N
[8] = test system: K562
[9] = test system: OVCAR-4
[10] = test system: UACC-62
[11] = test system: ACHN
[12] = test system: COLO 205
[13] = test system: EKVX
[14] = test system: SF-268
[15] = test system: OVCAR-8
[16] = test system: SNB-19
[17] = test system: MCF7
[18] = test system: A498
[19] = test system: NCI-H460
[20] = test system: CCRF-CEM

| SMILES | GI50 [1] | GI50 [2] | GI50 [3] | GI50 [4] | GI50 [5] | GI50 [6] | GI50 [7] | GI50 [8] | GI50 [9] | GI50 [10] | GI50 [11] | GI50 [12] | GI50 [13] | GI50 [14] | GI50 [15] | GI50 [16] | GI50 [17] | GI50 [18] | GI50 [19] | GI50 [20] |
| --- | --- | --- | --- | --- | --- | --- | --- | --- | --- | --- | --- | --- | --- | --- | --- | --- | --- | --- | --- | --- |
| COc1ccc2nc(C)cc(NCCCCCCCCCNc3cc(C)nc4ccc(OC)cc34)c2c1 | 1.11 µM (active) | 0.55 µM (active) | 2.07 µM (inactive) | 13.7 µM (inactive) | 4.66 µM (inactive) | 0.279 µM (active) | 1.46 µM (inactive) | 0.264 µM (active) | 2.19 µM (inactive) | 2.83 µM (inactive) | 8.87 µM (inactive) | 2.28 µM (inactive) | 3.4 µM (inactive) | 1.93 µM (inactive) | 0.527 µM (active) | 2.67 µM (inactive) | 1.21 µM (inactive) | 13.7 µM (inactive) | 0.396 µM (active) | 1.27 µM (inactive) |
| COc1ccccc1NC(=O)C(C#N)=C(SC)SC | > 100 µM (inactive) | > 100 µM (inactive) | > 100 µM (inactive) | > 100 µM (inactive) | > 100 µM (inactive) | > 100 µM (inactive) | > 100 µM (inactive) | > 100 µM (inactive) | > 100 µM (inactive) | > 100 µM (inactive) | > 100 µM (inactive) | > 100 µM (inactive) | > 100 µM (inactive) | > 100 µM (inactive) | – | > 100 µM (inactive) | > 100 µM (inactive) | > 100 µM (inactive) | 94.2 µM (inactive) | 89.5 µM (inactive) |
| CCCCCCn1c(SC)nc(COC(=O)NC)c1COC(=O)NC | 20.2 µM (inactive) | 20 µM (inactive) | – | 19.4 µM (inactive) | 16.7 µM (inactive) | 17.8 µM (inactive) | 19.2 µM (inactive) | 19.3 µM (inactive) | 9.57 µM (inactive) | 14.8 µM (inactive) | 16.6 µM (inactive) | 15.8 µM (inactive) | 13.9 µM (inactive) | 14.6 µM (inactive) | 17.4 µM (inactive) | 16.1 µM (inactive) | 20.1 µM (inactive) | 16.3 µM (inactive) | 18.1 µM (inactive) | > 10 µM (inactive) |
| COc1ccc(-c2c(N)n(-c3cccc(C(=O)O)c3)c(=O)c3cc([N+](=O)[O-])ccc23)cc1 | > 100 µM (inactive) | > 100 µM (inactive) | > 100 µM (inactive) | > 100 µM (inactive) | > 100 µM (inactive) | > 100 µM (inactive) | > 100 µM (inactive) | > 100 µM (inactive) | > 100 µM (inactive) | > 100 µM (inactive) | > 100 µM (inactive) | – | > 100 µM (inactive) | > 100 µM (inactive) | > 100 µM (inactive) | > 100 µM (inactive) | > 100 µM (inactive) | > 100 µM (inactive) | > 100 µM (inactive) | > 100 µM (inactive) |
| CC(C)=CCC[C@@H](C)C1=C(O)C(=O)C(C)=C(Nc2ccccc2Cl)C1=O | 6.71 µM (inactive) | 13 µM (inactive) | 16.3 µM (inactive) | 25.9 µM (inactive) | 33.7 µM (inactive) | 15 µM (inactive) | 21.5 µM (inactive) | 36 µM (inactive) | 11.2 µM (inactive) | 12.2 µM (inactive) | 19.1 µM (inactive) | 14.2 µM (inactive) | 19 µM (inactive) | 16 µM (inactive) | 4.71 µM (inactive) | 30.7 µM (inactive) | 24.4 µM (inactive) | 17.5 µM (inactive) | 14.1 µM (inactive) | 4.41 µM (inactive) |
| O=C(c1ccc(Cl)cc1Cl)N(Cc1cccnc1)C(=S)N(Cc1cccnc1)C(=O)c1ccc(Cl)cc1Cl | 22.2 µM (inactive) | 2.38 µM (inactive) | 3.15 µM (inactive) | 6.32 µM (inactive) | 3.77 µM (inactive) | 2.48 µM (inactive) | 2.31 µM (inactive) | 3.52 µM (inactive) | 2.72 µM (inactive) | 10.3 µM (inactive) | 9.62 µM (inactive) | 2.08 µM (inactive) | 15.7 µM (inactive) | 4.68 µM (inactive) | 3.35 µM (inactive) | 12 µM (inactive) | 2.58 µM (inactive) | 10.3 µM (inactive) | 15.5 µM (inactive) | 1.86 µM (inactive) |
| O=C(CCc1cccc(O)c1)NCCc1cccc(OCc2ccccc2)c1 | 16.7 µM (inactive) | 16.6 µM (inactive) | 16.5 µM (inactive) | 16.3 µM (inactive) | 24.1 µM (inactive) | 16.7 µM (inactive) | 18.6 µM (inactive) | 20.5 µM (inactive) | 20.1 µM (inactive) | 14.3 µM (inactive) | 25.4 µM (inactive) | 19.7 µM (inactive) | 21.5 µM (inactive) | 15.3 µM (inactive) | 26.7 µM (inactive) | 22.8 µM (inactive) | 18.8 µM (inactive) | 25.4 µM (inactive) | 15.6 µM (inactive) | 12.6 µM (inactive) |
| [N-]=[N+]=NC1(N=[N+]=[N-])C(=O)NN=C(c2ccccc2)C1=O (stereo unspecified) | 61.4 µM (inactive) | > 100 µM (inactive) | > 100 µM (inactive) | 97.5 µM (inactive) | > 100 µM (inactive) | 16.8 µM (inactive) | 20.7 µM (inactive) | 38.9 µM (inactive) | 57.4 µM (inactive) | 57.7 µM (inactive) | > 100 µM (inactive) | > 100 µM (inactive) | > 100 µM (inactive) | 13 µM (inactive) | 82.2 µM (inactive) | – | 62.7 µM (inactive) | > 100 µM (inactive) | > 100 µM (inactive) | 32.2 µM (inactive) |
| COc1cc(/C=C2\C(=O)N(c3cc(Cl)ccc3Cl)C(c3ccccc3)S2(=O)=O)cc(OC)c1OC (stereo unspecified) | 51.5 µM (inactive) | 81.5 µM (inactive) | 86.1 µM (inactive) | > 100 µM (inactive) | > 100 µM (inactive) | 38.5 µM (inactive) | 22.2 µM (inactive) | 31 µM (inactive) | 62.1 µM (inactive) | 37.2 µM (inactive) | > 100 µM (inactive) | > 100 µM (inactive) | 29.3 µM (inactive) | – | > 100 µM (inactive) | > 100 µM (inactive) | 27 µM (inactive) | > 100 µM (inactive) | > 100 µM (inactive) | 42.9 µM (inactive) |
| O=C(O[C@H]1[C@@H](O)[C@H](n2cnc3c(Cl)ncnc32)O[C@@H]1COC(c1ccccc1)(c1ccccc1)c1ccccc1)c1ccccc1 | 19.8 µM (inactive) | 18.5 µM (inactive) | 22.8 µM (inactive) | 14.7 µM (inactive) | 45.2 µM (inactive) | 40.9 µM (inactive) | 35.9 µM (inactive) | 3.6 µM (inactive) | 30.3 µM (inactive) | 39.5 µM (inactive) | 15.7 µM (inactive) | 15.9 µM (inactive) | 14.8 µM (inactive) | 15.4 µM (inactive) | 25.4 µM (inactive) | 39.3 µM (inactive) | 4.91 µM (inactive) | 17.2 µM (inactive) | 17.5 µM (inactive) | 3.55 µM (inactive) |
| CCCCCCCCCCCCC(O)C1CCC(C(O)CCCCCCC(O)CCCCCCCC2=CC(C)OC2=O)O1 (stereo unspecified) | 3.86 µM (inactive) | – | 61.9 µM (inactive) | 2.17 µM (inactive) | 35.4 µM (inactive) | 0.127 µM (active) | 17.7 µM (inactive) | 6.55 µM (inactive) | 34.4 µM (inactive) | > 10 µM (inactive) | 2.48 µM (inactive) | 19.7 µM (inactive) | 1.71 µM (inactive) | 6.53 µM (inactive) | 36.6 µM (inactive) | 34.4 µM (inactive) | 0.745 µM (active) | 32.8 µM (inactive) | 12.9 µM (inactive) | 3.1 µM (inactive) |
| Cc1cccc(C)c1NC(=O)C(=O)CC(=O)/C=C/c1ccccc1 | > 100 µM (inactive) | > 100 µM (inactive) | > 100 µM (inactive) | > 100 µM (inactive) | > 100 µM (inactive) | > 100 µM (inactive) | > 100 µM (inactive) | > 100 µM (inactive) | > 100 µM (inactive) | > 100 µM (inactive) | > 100 µM (inactive) | – | > 100 µM (inactive) | > 100 µM (inactive) | > 100 µM (inactive) | > 100 µM (inactive) | > 100 µM (inactive) | > 100 µM (inactive) | 73.6 µM (inactive) | > 100 µM (inactive) |
| COc1ccc(C(C)NNC(=O)c2cc[n+]([BH2-]C#N)cc2)c(OC)c1 (stereo unspecified) | > 100 µM (inactive) | – | > 100 µM (inactive) | > 100 µM (inactive) | > 100 µM (inactive) | – | > 100 µM (inactive) | > 100 µM (inactive) | 69.5 µM (inactive) | > 100 µM (inactive) | > 100 µM (inactive) | > 100 µM (inactive) | > 100 µM (inactive) | > 100 µM (inactive) | > 100 µM (inactive) | > 100 µM (inactive) | > 100 µM (inactive) | > 100 µM (inactive) | > 100 µM (inactive) | > 100 µM (inactive) |
| C/C(=N\N=C(/S)SCc1ccccc1)c1ccccn1 | 0.514 µM (active) | < 0.01 µM (active) | < 0.0192 µM (active) | < 0.01 µM (active) | 0.339 µM (active) | < 0.01 µM (active) | 0.971 µM (active) | < 0.01 µM (active) | < 0.01 µM (active) | 0.463 µM (active) | < 0.01 µM (active) | < 0.01 µM (active) | < 0.01 µM (active) | 0.184 µM (active) | < 0.01 µM (active) | 2.97 µM (inactive) | < 0.01 µM (active) | 1.41 µM (inactive) | 0.26 µM (active) | < 0.01 µM (active) |

— ChEMBL document CHEMBL1201862, “PubChem BioAssay data set” (2004)
